Measurements as given in publication PMC5155146, “Thioredoxin-interacting protein regulates haematopoietic stem cell ageing and rejuvenation by inhibiting p38 kinase activity” (Nature Communications, 2016).

Key:
[1] = system: TXNIP−/− HSCs; experiment: ROS and phospho-p38 of LT-HSCs after NAC treatment in vivo; set-up: species or system mouse; details: 12-month-old TXNIP−/− mice, NAC 100 mg kg−1 i.p., after 12 hours; n=3
Experimental: Supplementary Figure 2. Expression of p38 and TXNIP in HSCs and their interaction.
(a,b) ROS (a) and phospho- p38 level (b) of LT-HSCs after NAC treatment. We i.p. injected
100 mg kg-1 NAC into mice then anal yzed after 12 hours (n=3 ) . (c) Quantitative real-time
PCR of p38famil y in indicated subsets (n=3). ( d) Western blot anal yses of lin- cells (r epeated
3 times). ( e) Real-time PCR of TXNIP i n LT -HSCs (n=3). ( f) Confocal images of TXNIP in
LT-HSCs (rep eated 3 times). (g) Western blot anal yses of BM cells (rep eated 2 times). ( h,i )
GST pull-down assa y (repeated 3 times). ( j) Constructed p38 mutant clones. ( k) GST pull-
down assays between TXNIP and p38 mutants (repeated 3 times). Data are mean ± s.d.
Statistical significance was determined using a two-tailed Student’s t -tests. **P < 0.01.
matched WT mice (Fig. 1b). To make the data more consistent, the authors should present
their data as percentages of bone marrow cells and absolute number of LT-HSCs, SH-HSCs
Thank you for your valuable comments. We calculated the percentages of bone
marrow cells and absolute number of LT-HSCs, SH-HSCs and MPPs, and presented
the results in our new version Supplementary Fig. 1c,d.
the exhaustion of HSCs in TXNIP-/- mice by high ROS. We have added this text
“Next, we analyzed the frequency of BM cells and absolute number of LT-HSCs,
ST-HSCs and MPPs in each mouse. […]

[2] = system: mice; experiment: 5-FU haematopoietic stress in mice; type: in vivo, mouse
Experimental: young TXNIP+/+ or T X N IP -/- mice after 5-FU (150 mg kg-1) administration (n=10). NAC was
i.p. injected 100 m g kg -1 daily starting at da y -1. […] We i.p. injected
5- FU (150 mg kg-1) and NAC (100 mg kg-1) then examined ROS in HSCs after 24 hours
Data are mean ± s.d. Statistical significance was determined using a two-t ailed
Student’s t -tests. *P< 0.05, **P < 0.01, ***P <0.001.

[3] = system: old HSCs; experiment: Polar distribution of Cdc42 in LT-HSCs (confocal); type: cell-based, mouse; details: sorted LT-HSCs, 10 μM, 16 h in HSC media; 50-60 HSCs scored for Cdc42 polarity; repeated two times
Experimental: For phosho-p38 and TXNIP analysis using flow cytometry, total BM cells were first stained with surface markers and then fixed and permeabilized with the Cytofix/Perm Solution (BD Biosciences). For TXNIP staining, the cells were blocked with PBS containing 5% BSA for 30 min at RT and then incubated with primary antibody (1:50 dilution) for 1 h in PBS containing 5% BSA, washed three times with PBS and then incubated with a secondary Alexa Fluor 647 (Life technology; 1:1,000 dilution) for 1 h at RT or for phospho-p38 staining, the cells were incubated with anti-phospho-p38-APC (1:40 dilution) at 4 °C for 30 min in PBS containing 2% FBS. For confocal imaging, freshly isolated LT-HSCs were seeded on fibronectin-coated coverslips at 4 °C for 10 min and were immediately fixed. After fixation, cells were permeabilized with 0.2% Triton X-100 for 20 min and blocked with PBS containing 5% BSA for 30 min at RT. Cells were stained primary and secondary antibodies for 1 h at RT and then were mounted with DAPI containing mounting reagent (Molecular Probes). […] After fixation, cells were permeabilized with 0.2% Triton X-100 for 20 min and blocked with PBS containing 5% BSA for 30 min at RT. […] Fifty to sixty individual HSCs were scored for polarity of Cdc42. […]

[4] = system: aged HSCs; experiment: Competitive transplantation of treated HSCs; type: in vivo, mouse; details: long-term SB203580-administered recipients; n=6-7 from two experiments (Fig. 3d,e)
Text: The repopulation of donor-derived cells was monitored by staining PB from tail vein and BM cells with antibodies against indicated surface markers after 16 weeks.

[5] = Solubility; type: physicochemical; details: authors' statement in response to reviewers
[6] = system: TXNIP-p38 interaction; experiment: TXNIP-p38 interaction (immunoprecipitation, in situ PLA, GST pull-down); type: cell-based; details: GST pull-down assay in 293T cells
[7] = system: p38α; experiment: In vitro kinase assay for p38 (phospho-ATF2 read-out); type: biochemical, human; details: His-p38α, phospho-ATF2 levels; repeated 2 times (Suppl. Fig. 4b)
Experimental: To examine the kinase activity of p38 in vitro, we used p38 MAP Kinase assay kit (9820, Cell Signaling). We added 0.5–1 μg of His-p38α for kinase assay and its activity was determined by phospho-ATF2 levels. […] FLAG-p38α, β, γ and δ were expressed in 293T cells (ATCC). p38 isoforms were immunoprecipitated with α-FLAG antibody (Sigma; 1:250 dilution) then we performed in vitro kinase assay.

In the case of `CC(=O)N[C@@H](CS)C(=O)O` [NAC, N-acetyl-L-cysteine], the “ROS level in HSCs” value [1] is reported as “decreased”, the “p38 activation in HSCs” value [1] is reported as “decreased” and the “5-FU-induced ROS in HSCs” value ([2]; 5-FU 150 mg kg−1 and NAC 100 mg kg−1 i.p., ROS after 24 hours, n=3) is reported as “reversed”. For the same molecule, the “rescue of TXNIP−/− mice from 5-FU-induced leucopenia (survival)” value ([2]; young mice, 5-FU 150 mg kg−1, NAC 100 mg kg−1 i.p. daily from day −1, n=10) was “fully rescued”.

With `C[S+]([O-])c1ccc(-c2nc(-c3ccncc3)c(-c3ccc(F)cc3)[nH]2)cc1` (stereo not shown) [SB203580] the “% of polarized cells (Old HSCs)” value [3] was 76.9%, the “p38 activity and ROS in donor-derived HSCs” value [4] was “maintained low levels of p38 activity and ROS” and the solubility [5] was “DMSO soluble”. The “p38 interaction ability with TXNIP” value [6] was “did not affect”.

In the case of YGRKKRRQRRR [TAT], the “% of polarized cells (Old HSCs)” value [3] is reported as 9.3%.

B1: GST-TXNIP-T: GST-fused truncation mutant for TXNIP (150a.a–317a.a) (protein)
chain: DVNTPDLMAPVSAKKEKKVSCMFIPDGRVSVSARIDRKGFCEGDEISIHADFENTCSRIVVPKAAIVARHTYLANGQTKVLTQKLSSVRGNHIISGTCASWRGKSLRVQKIRPSILGCNILRVEYSLLIYVSVPGSKKVILDLPLVIGSRSGLSSRTSSMASRTSSEM
modifications: left off: GST, end not stated, kept
For B1, the “p38 kinase activity in vitro” value [7] was “inhibited p38 kinase activity in vitro”.
